Reference: US9090670B2, “Use of peptides for promoting wound healing” (priority 2008, dated 2015)
Where no end group is shown, it is not given here.

Tests used:
[1] = tested on: human buccal epithelial cell line TR146; assay: In vitro scratch wound closure assay on an epithelial monolayer; type: cell-based
Procedure: The human buccal epithelial cell line TR146 (Rupniak et al; J Natl Cancer Inst. 1985 October: 75(4):621-35) was kindly provided by Cancer Research UK. Cells were grown in Dulbecco's modified Eagle medium with 4.5 g/l glucose (Invitrogen), 10% FCS (HyClone) and 100 U/ml penicillin, […] streptomycin, and 250 ng/ml amphotericinB (Antibiotic antimyotic solution, Sigma,), at 37° C., 95% humidity and 5% CO2. Cells were maintained until near confluence and then briefly treated with 0.25% trypsin-EDTA 1× (Invitrogen) to detach them, counted in a hepacytometer and seeded into new flasks or multi-well plates at the required cell density of about 1.5×10^5 cells/well. Wound assays were performed as previously described ([…] et al., 1993, J Cell Sci. 106 (Pt 3):869-78). In brief, cells were grown in 12-well plates until confluence, and then were serum deprived for 24 hours in keratinocyte serum free medium (SFM (Invitrogen)). In each well a scratch was made in the cellular monolayer using a sterile tip. The wounded monolayer was washed with SFM to remove cellular debris, and the following conditions were applied: • (i) Whole saliva and salivary secretions applied in 30% (v/v) in SFM. As a negative control 30% (v/v) saliva buffer was used. • (ii) (ii) rhEGF (Invitrogen) as a positive control • (iii) rp-HPLC fractions containing salivary proteins; • (iv) synthetic peptides: the experiments with isolated proteins and synthetic peptides were performed in full SFM. The width of the wound area was determined microscopically immediately after wound creation and at approximately 16 hours after wounding. The relative closure was calculated by relating the closure to that of the negative control.

[2] = tested on: human buccal epithelial cell line TR146; assay: In vitro wound closure with inhibitors of EGFR, p38 MAPK and ERK1/2; type: cell-based
Procedure: Wound assays were performed as previously described (Matthay et al., 1993, J Cell Sci. 106 (Pt 3):869-78). In brief, cells were grown in 12-well plates until confluence, and then were serum deprived for 24 hours in keratinocyte serum free medium (SFM (Invitrogen)). In each well a scratch was made in the cellular monolayer using a sterile tip. The wounded monolayer was washed with SFM to remove cellular debris, and the following conditions were applied: • (i) Whole saliva and salivary secretions applied in 30% (v/v) in SFM. As a negative control 30% (v/v) saliva buffer was used. • (ii) (ii) rhEGF (Invitrogen) as a positive control • (iii) rp-HPLC fractions containing salivary proteins; • (iv) synthetic peptides: the experiments with isolated proteins and synthetic peptides were performed in full SFM.
For inhibitor studies; directly after wounding cells were exposed to inhibitors of ERK1/2 (U0126, 5 μM, LC Laboratories), EGFR (AG1478, 1 μM, Calbiochem), and p38 MAPK (SB203580, 5 μM; LC Laboratories). Experiments were done in quadruplicate and analyzed using One-way ANOVA to determine significance with additional LSD post hoc test, P<0.05 was considered significant.

## EGF: epidermal growth factor, rhEGF (Invitrogen), used as a positive control
[1]; 5 ng/ml, FIG. 1D
  induction of wound closure by EGF: able to induce wound closure with rates comparable to that of parotid saliva
[1]; TR146 monolayer, approx. 16 hours after wounding, closure relative to negative control, peptides tested at 1-50 μg/ml
  Wound closure rel. clos. ± SD: 1.41 ± 0.12
[2]; AG1478 1 μM
  induced wound closure with EGFR blocked: abolished the effect
[2]; SB203580 5 μM (p38 MAPK), U0126 5 μM (ERK1/2), FIG. 2
  pathway dependence of induced wound closure: p38^MAPK dependent

## C-HST1: cyclic peptide having the amino acid sequence according to SEQ. ID. NO. 4, Histatin 1 (DSHEKRHHGYRRKFHEKHHSHREFPFYGDYGSNYLYDN; ends and bridges not checked; also: cyclic, mode of cyclisation not given here)
[1]; concentration of 1*10-3 μM, FIG. 4, 1 = no peptide added
  relative wound closure: 1.5

## CC(C)C[C@H](NC(=O)[C@H](Cc1ccc(O)cc1)NC(=O)[C@H](CC(N)=O)NC(=O)[C@H](CO)NC(=O)[C@H](CCCNC(=N)N)NC(=O)[C@H](Cc1ccc(O)cc1)NC(=O)CNC(=O)[C@H](CCCNC(=N)N)NC(=O)[C@H](Cc1c[nH]cn1)NC(=O)[C@H](CO)NC(=O)[C@H](Cc1c[nH]cn1)NC(=O)[C@H](Cc1c[nH]cn1)NC(=O)[C@H](CCCCN)NC(=O)[C@H](CCC(=O)O)NC(=O)[C@H](Cc1c[nH]cn1)NC(=O)[C@H](Cc1ccccc1)NC(=O)[C@H](CCCCN)NC(=O)[C@H](CCCNC(=N)N)NC(=O)[C@H](CCCCN)NC(=O)[C@H](Cc1ccc(O)cc1)NC(=O)CNC(=O)[C@H](Cc1c[nH]cn1)NC(=O)[C@H](Cc1c[nH]cn1)NC(=O)[C@H](CCCNC(=N)N)NC(=O)[C@H](CCCCN)NC(=O)[C@H](C)NC(=O)[C@H](Cc1c[nH]cn1)NC(=O)[C@H](CO)NC(=O)[C@@H](N)CC(=O)O)C(=O)N[C@@H](Cc1ccc(O)cc1)C(=O)N[C@@H](CC(=O)O)C(=O)N[C@@H](CC(N)=O)C(=O)O [Histatin 3]
[1]; synthesized peptides in SFM, vs control
  induction of wound closure (in words): induce wound closure
